The results in this text go back to ChEMBL document CHEMBL4665786, “Cellular Target Proteome in Breast Cancer Cells of an Oplopane Sesquiterpenoid Isolated from Tussilago farfara” (J Nat Prod, 2020).

The subject of test [1] is MCF7. As to the kind of experiment: Antiproliferative activity against human MCF7 cells by MTT assay. In kind it is functional, cell-based.
The test system of test [2] is MDA-MB-231. The experiment in a line: Antiproliferative activity against human MDA-MB-231 cells by MTT assay. In kind it is functional, cell-based.

With `C=C(C1[C@H](OC(C)=O)C(=O)[C@@]2(C)O[C@H]2[C@@H]1OC(C)=O)[C@H](CC=C(C)C)OC(=O)/C(C)=C\C` (stereo partly specified), the IC50 in test [1] and in test [2] was more than 10 µM each time.

In the case of `C=C(C1C[C@@H]2O[C@]2(C)C(=O)[C@H]1OC(=O)/C(C)=C\C)[C@H](CC=C(C)C)OC(=O)/C(C)=C\C` (stereo partly specified), the IC50 in test [1] and in test [2] was more than 10 µM throughout.

Consider `C=C1[C@H]2[C@@H](C(C(C)OC)C(=O)[C@H]2OC(=O)C(C)CC)[C@H](C(C)C)C[C@H]1OC(=O)/C=C(\C)CC` (stereo partly specified), for which the half-maximal inhibitory concentration (IC50) in test [2] is more than 90 µM.

Consider `C=C1[C@@H]2C(O)C(=O)/C(=C\C)[C@H]2[C@H](C(C)C)C[C@H]1OC(=O)/C=C(\C)CC` (stereo partly specified), for which the midpoint of inhibition in test [2], the IC50, lay at 11.3 µM.

With `C=C(C1C[C@@H]2O[C@]2(C)C(=O)[C@H]1OC(C)=O)[C@H](CC=C(C)C)OC(=O)/C(C)=C\C` (stereo partly specified), the IC50 in test [1] and in test [2] was more than 10 µM throughout.

Take `C/C=C1\C(=O)[C@@H](OC(=O)C(C)CC)[C@@H]2[C@@H]1[C@H](C(C)C)C[C@@H](OC(=O)/C=C(\C)CC)C21CO1` (stereo partly specified): the IC50 came to 17.6 µM in test [1] and 8.6 µM in test [2].

For the compound `C=C1[C@H](OC(=O)/C=C(\C)CC)C[C@@H](C(C)C)[C@@H]2/C(=C\C)C(=O)C[C@@H]12`, the IC50 in test [1] and in test [2] was more than 10 µM in each case.

On to `C=C1[C@H](OC(=O)/C=C(\C)CC)C[C@@H](C(C)C)[C@@H]2/C(=C/C)C(=O)C[C@@H]12`, for which the concentration for half-maximal inhibition (IC50) in test [1] and in test [2] was more than 10 µM throughout.

Take `C=C1[C@H]2[C@@H]([C@@H]([C@H](C)OC(C)=O)C(=O)[C@H]2OC(=O)C(C)CC)[C@H](C(C)C)C[C@H]1OC(=O)/C=C(\C)CC` (stereo partly specified): the IC50 in test [1] was 12.8 µM; in test [2], 7.3 µM.

With `C/C=C1\C(=O)[C@@H](OC(=O)C(C)CC)[C@@H]2[C@@H]1[C@H](C(C)C)C[C@@H](OC(=O)/C=C(\C)CC)C2(O)CN=[N+]=[N-]` (stereo partly specified), the IC50 in test [1] was determined as 14.1 µM; in test [2], 5.5 µM.

Take `C=C1[C@@H]2C(O)C(=O)C(C(C)OC)[C@H]2[C@H](C(C)C)C[C@H]1OC(=O)/C=C(\C)CC` (stereo partly specified): the IC50 in test [2] is more than 90 µM.

Consider `C=C1[C@H](OC(=O)/C=C(\C)CC)C[C@@H](C(C)C)[C@@H]2[C@@H]([C@H](C)OC(C)=O)C(=O)C[C@@H]12`, for which the IC50 in test [1] and in test [2] was more than 10 µM each time.
